Assay results from US20040265836A1, “Methods for the identification of inhibitors of C4 Long Chain Base Hydroxylase activity in plants” (priority 2003, published 2004).

Assays:
[1] = system: yeast strain PGY8 (wild type); test: Syringomycin E sensitivity growth assay, wild type yeast strain PGY8; type: cell-based, Saccharomyces cerevisiae; settings: PGY8 in rich medium; 5 μl of approximately 14-fold concentrated Syringomycin E-containing fraction dried in well of 384-well plate
Description: (§1) Syringomycin E is not a commercially available antibiotic and was, therefore, purified from the bacterium Pseudomonas syringae pv. syringae according to the method of (Bidwai & Zhang et al., 83 Plant Physiol 39-43 (1987)). Briefly, stationary-phase liquid cultures of P. syringae pv. syringae were extracted with acidified acetone and fractionated over an Amberlite XAD-2 (Sigma) column using a linear gradient of 0.1% trifluoroacetic acid/0.1% trifluoroacetic acid in 2-propanol. Each fraction was assayed for ability to inhibit growth of wild type (PGY8) and sur2 (PGY29) yeast strains. For the assay, 10 ml fractions were collected and 50 μl of each fraction was applied a 96-well plate and dried in a vacuum concentrator. […] of rich medium containing mid-logarithmic PGY8 or PGY29 at a cell density of 10^5 cells/ml were applied to each well. Growth was monitored after 18 hours by determining the absorbance at 600 nm. Syringomycin E-containing fractions were identified as those that inhibited growth of PGY8 but not of PGY29.
(§2) The ability of the amino-terminal truncated Arabidopsis LCBH to confer Syringomycin E sensitivity on the yeast sur2 mutant was determined as follows. […] 100 μl of yeast strains PGY8 and PGY29 in rich medium, or PGY31 in rich medium supplemented with galactose were added to each well and growth was monitored at 600 nm.

sur2 mutants = settings: cited from earlier work
Wild-type yeast strains = settings: cited from earlier work
[2] = system: yeast strain PGY31 (sur2 mutant expressing the truncated form of C4-LCBH); test: Syringomycin E sensitivity growth assay, sur2 mutant expressing truncated Arabidopsis LCBH (PGY31); type: cell-based, Saccharomyces cerevisiae; settings: PGY31 in rich medium supplemented with galactose; 5 μl of approximately 14-fold concentrated Syringomycin E-containing fraction dried in well of 384-well plate
Description: as §1, §2

[3] = system: yeast strain PGY29 (sur2); test: Syringomycin E sensitivity growth assay, sur2 mutant strain PGY29; type: cell-based, Saccharomyces cerevisiae; settings: PGY29 in rich medium; 5 μl of approximately 14-fold concentrated Syringomycin E-containing fraction dried in well of 384-well plate
Description: as §1, §2

Syringomycin E
Growth in the presence of Syringomycin E (monitored at 600 nm) [1]: completely inhibited | Growth in the presence of syringomycin E (sur2 mutants): able to grow | Sensitivity to syringomycin E (Wild-type yeast strains): sensitive | Growth in the presence of Syringomycin E (monitored at 600 nm) [2]: completely inhibited | Growth in the presence of Syringomycin E (monitored at 600 nm) [3]: able to grow
